# Experimental data reported in patent publication US8785460B2, “Tricyclic compounds and use thereof” (Takeda Pharmaceutical Company Limited, priority 2008, dated 2014).
# Assays:
# human CRF1 receptor = molecular target: T1, human CRF1 receptor (Homo sapiens, UniProt P34998); test: Measurement of CRF Binding Inhibitory Rate (receptor binding experiment with 125I-CRF); conditions: human CRF1 receptor expressing CHO cellular membrane fraction, 50 pM 125I-CRF, room temperature 1.5 hr, 0.05 nM to 10 μM of compound; read-out: IC50 values (CRF binding inhibition)
# T1 construct: expressed in transfected cells; host or cells: CHO cells (membrane fraction)
# T1 sequence (P34998 24-415): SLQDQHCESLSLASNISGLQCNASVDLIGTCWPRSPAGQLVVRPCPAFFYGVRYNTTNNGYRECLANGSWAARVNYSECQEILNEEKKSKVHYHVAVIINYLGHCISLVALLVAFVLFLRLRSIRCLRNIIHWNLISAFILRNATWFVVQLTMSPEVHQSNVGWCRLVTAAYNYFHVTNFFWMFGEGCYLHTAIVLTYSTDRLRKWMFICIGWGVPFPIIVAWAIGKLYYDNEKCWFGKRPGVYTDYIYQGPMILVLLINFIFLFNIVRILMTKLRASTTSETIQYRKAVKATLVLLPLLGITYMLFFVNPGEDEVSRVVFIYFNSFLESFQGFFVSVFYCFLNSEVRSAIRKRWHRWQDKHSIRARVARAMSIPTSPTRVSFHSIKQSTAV
Compound,melting point [°C],IC50 (human CRF1 receptor) [nM]
"CCC(CC)c1ccc(Cl)c2nc3n(c12)CCCCN3c1ccc(N(C)C)cc1C [Example 51, 4-[10-Chloro-7-(1-ethylpropyl)-2,3,4,5-tetrahydro-1H-[1,3]diazepino[1,2-a]benzimidazol-1-yl]-N,N,3-trimethylaniline]",174 to 175,< 1000
"CCC(OC(C)=O)c1ccc(Cl)c2nc3n(c12)CCCN3c1ccc(C(C)=O)cc1Cl (stereo not shown) [Example 250, 1-[1-(4-Acetyl-2-chlorophenyl)-9-chloro-1,2,3,4-tetrahydropyrimido[1,2-a]benzimidazol-6-yl]propyl acetate]",183 to 186,< 1000
"CCN(CC)c1cccc2nc3n(c12)CCN(C)C3c1ccc(Cl)cc1Cl (stereo not shown) [Example 506, 1-(2,4-Dichlorophenyl)-N,N-diethyl-2-methyl-1,2,3,4-tetrahydropyrazino[1,2-a]benzimidazol-6-amine]",186 to 187,< 1000
"CCC(OC(C)=O)c1ccc(Cl)c2nc3n(c12)CCCN3c1ccc(Cl)cc1Cl (racemic) [Example 238, 1-[9-Chloro-1-(2,4-dichlorophenyl)-1,2,3,4-tetrahydropyrimido[1,2-a]benzimidazol-6-yl]propyl acetate]",174 to 176,< 1000
"CCC(NC(=O)C(F)F)c1ccc(Cl)c2nc3n(c12)CCCN3c1c(Cl)cc(Cl)cc1Cl (stereo not shown) [Example 409, N-{1-[9-Chloro-1-(2,4,6-trichlorophenyl)-1,2,3,4-tetrahydropyrimido[1,2-a]benzimidazol-6-yl]propyl}-2,2-difluoroacetamide]",211 to 213,< 1000
"CCC(OC(C)=O)c1ccc(Cl)c2nc3n(c12)CCCCN3c1ncc(Cl)cc1Cl (stereo not shown) [Example 329, 1-[10-Chloro-1-(3,5-dichloropyridin-2-yl)-2,3,4,5-tetrahydro-1H-[1,3]diazepino[1,2-a]benzimidazol-7-yl]propyl acetate]",158 to 160,< 1000
"CCCOc1ccc(N2CCCn3c2nc2c(Cl)ccc(C(OC(F)F)C(F)(F)F)c23)c(C)n1 (stereo not shown) [Example 289, 9-Chloro-6-[1-(difluoromethoxy)-2,2,2-trifluoroethyl]-1-(2-methyl-6-propoxypyridin-3-yl)-1,2,3,4-tetrahydropyrimido[1,2-a]benzimidazole]",156 to 158,< 1000
"COCC(C)(C)c1ccc(Cl)c2nc3n(c12)CCCN3c1ccc(Cl)cc1Cl [Example 150, 9-Chloro-1-(2,4-dichlorophenyl)-6-(2-methoxy-1,1-dimethylethyl)-1,2,3,4-tetrahydropyrimido[1,2-a]benzimidazole]",188 to 190,< 1000
"CCC(OCC(F)(F)F)c1ccc(Cl)c2nc3n(c12)CCCN3c1ccc(N(C)C)nc1C (stereo not shown) [Example 167, 5-{9-Chloro-6-[1-(2,2,2-trifluoroethoxy)propyl]-3,4-dihydropyrimido[1,2-a]benzimidazol-1(2H)-yl}-N,N,6-trimethylpyridin-2-amine]",144 to 146,< 1000
"CCC(CC)c1ccc(Cl)c2nc3n(c12)CCCCN3c1c(C)noc1C [Example 343, 10-Chloro-1-(3,5-dimethylisoxazol-4-yl)-7-(1-ethylpropyl)-2,3,4,5-tetrahydro-1H-[1,3]diazepino[1,2-a]benzimidazole]",163 to 164,< 1000
"COC(c1ccc(Cl)c2nc3n(c12)CCCN3c1ccc(Cl)cc1Cl)C(F)(F)F (stereo not shown) [Example 309, 9-Chloro-1-(2,4-dichlorophenyl)-6-(2,2,2-trifluoro-1-methoxyethyl)-1,2,3,4-tetrahydropyrimido[1,2-a]benzimidazole]",161 to 163,< 1000
"CCC(CO)c1ccc(Cl)c2nc3n(c12)CCCN3c1ccc(Cl)cc1Cl (stereo not shown) [Example 147, 2-[9-Chloro-1-(2,4-dichlorophenyl)-1,2,3,4-tetrahydropyrimido[1,2-a]benzimidazol-6-yl]butan-1-ol]",162 to 164,< 1000
CCC(CC)c1ccc(Cl)c2nc3n(c12)CCCCN3c1c(C)cc(Cl)cc1OC [Example 56],196 to 198,< 1000
"CCC(OC(C)=O)c1ccc(Cl)c2nc3n(c12)CCCN3c1cnc(N(C)C)cc1C (stereo not shown) [Example 155, 1-{9-Chloro-1-[6-(dimethylamino)-4-methylpyridin-3-yl]-1,2,3,4-tetrahydropyrimido[1,2-a]benzimidazol-6-yl}propyl acetate]",159 to 160,< 1000
"CCC(CC)c1ccc(Cl)c2nc3n(c12)CCCCN3c1ccc([S+](C)[O-])cc1C (stereo not shown) [Example 45, 10-Chloro-7-(1-ethylpropyl)-1-[2-methyl-4-(methylsulfinyl)phenyl]-2,3,4,5-tetrahydro-1H-[1,3]diazepino[1,2-a]benzimidazole]",189 to 190,< 1000
"CCC(CC)c1ccc(Cl)c2nc3n(c12)CCCCN3c1cnc(N(C)C)cc1C [Example 25, 5-[10-Chloro-7-(1-ethylpropyl)-2,3,4,5-tetrahydro-1H-[1,3]diazepino[1,2-a]benzimidazol-1-yl]-N,N,4-trimethylpyridin-2-amine]",156 to 157,< 1000
"CCC(NC(=O)CC(F)(F)F)c1ccc(Cl)c2nc3n(c12)CCCN3c1ccc(Cl)cc1Cl (stereo not shown) [Example 447, N-{1-[9-Chloro-1-(2,4-dichlorophenyl)-1,2,3,4-tetrahydropyrimido[1,2-a]benzimidazol-6-yl]propyl}-3,3,3-trifluoropropanamide]",285 to 290,< 1000
"CCCC(O)c1ccc(Cl)c2nc3n(c12)CCCN3c1ccc(Cl)cc1Cl (stereo not shown) [Example 114, 1-[9-Chloro-1-(2,4-dichlorophenyl)-1,2,3,4-tetrahydropyrimido[1,2-a]benzimidazol-6-yl]butan-1-ol]",220 to 221,< 1000
"CCO/N=C(/CC)c1ccc(Cl)c2nc3n(c12)CCCN3c1ccc(Cl)cc1Cl [Example 124, (1Z)-1-[9-Chloro-1-(2,4-dichlorophenyl)-1,2,3,4-tetrahydropyrimido[1,2-a]benzimidazol-6-yl]propan-1-one O-ethyloxime]",140 to 141,< 1000
"CCC(CCOC)c1ccc(Cl)c2nc3n(c12)CCCN3c1ccc(Cl)cc1Cl (stereo not shown) [Example 453, 9-Chloro-1-(2,4-dichlorophenyl)-6-(1-ethyl-3-methoxypropyl)-1,2,3,4-tetrahydropyrimido[1,2-a]benzimidazole]",144 to 146,< 1000
"CCC(CC)c1ccc(Cl)c2nc3n(c12)CC(=O)N3c1ccc(Cl)cc1Cl [Example 4, 8-Chloro-1-(2,4-dichlorophenyl)-5-(1-ethylpropyl)-1H-imidazo[1,2-a]benzimidazol-2(3H)-one]",200 to 202,< 1000
"CCC(OC(C)=O)c1ccc(Cl)c2nc3n(c12)CCN3c1c(C)cc(Cl)cc1Cl (stereo not shown) [Example 437, 1-[8-Chloro-1-(2,4-dichloro-6-methylphenyl)-2,3-dihydro-1H-imidazo[1,2-a]benzimidazol-5-yl]propyl acetate]",190 to 192,< 1000
"CCC(NS(C)(=O)=O)c1ccc(Cl)c2nc3n(c12)CCCN3c1ccc(Cl)cc1Cl (stereo not shown) [Example 373, N-{1-[9-Chloro-1-(2,4-dichlorophenyl)-1,2,3,4-tetrahydropyrimido[1,2-a]benzimidazol-6-yl]propyl}methanesulfonamide]",125 to 126,< 1000
"CCN(CC)c1cccc2nc3n(c12)CC(CCO)N3c1ccc(Cl)cc1Cl (stereo not shown) [Example 74, 2-[1-(2,4-Dichlorophenyl)-5-(diethylamino)-2,3-dihydro-1H-imidazo[1,2-a]benzimidazol-2-yl]ethanol]",222 to 223,< 1000
"CCCC(OC)c1ccc(Cl)c2nc3n(c12)CCCN3c1c(C)cc(Cl)cc1Cl (stereo not shown) [Example 141, 9-Chloro-1-(2,4-dichloro-6-methylphenyl)-6-(1-methoxybutyl)-1,2,3,4-tetrahydropyrimido[1,2-a]benzimidazole]",151 to 152,< 1000
"CC(=O)OC(c1ccc(Cl)c2nc3n(c12)CCCN3c1ccc(Cl)cc1Cl)C1CC1 (stereo not shown) [Example 244, [9-Chloro-1-(2,4-dichlorophenyl)-1,2,3,4-tetrahydropyrimido[1,2-a]benzimidazol-6-yl](cyclopropyl)methyl acetate]",208 to 210,< 1000
"CCC(CC)c1ccc(Cl)c2nc3n(c12)CCN3c1ccc(Br)cc1Cl [Example 12, 1-(4-Bromo-2-chlorophenyl)-8-chloro-5-(1-ethylpropyl)-2,3-dihydro-1H-imidazo[1,2-a]benzimidazole]",165 to 168,< 1000
"CCC(CC)(OC)c1ccc(Cl)c2nc3n(c12)CCCN3c1ccc(Cl)cc1Cl [Example 110, 9-Chloro-1-(2,4-dichlorophenyl)-6-(1-ethyl-1-methoxypropyl)-1,2,3,4-tetrahydropyrimido[1,2-a]benzimidazole]",124 to 125,< 1000
"CCN(CC)c1cccc2nc3n(c12)CCCNC3c1ccc(Cl)cc1Cl (stereo not shown) [Example 509, 1-(2,4-Dichlorophenyl)-N,N-diethyl-2,3,4,5-tetrahydro-1H-[1,4]diazepino[1,2-a]benzimidazol-7-amine]",186 to 188,< 1000
